# Assay results published in ChEMBL document CHEMBL5370650, “Discovery of Clinical Candidate NT-0796, a Brain-Penetrant and Highly Potent NLRP3 Inflammasome Inhibitor for Neuroinflammatory Disorders” (J Med Chem, 2023).
# Active and inactive are the calls of the source. The calls are words filed in the database; no cut-off is given here.
# Tests used:
# [1] = target: T1, NACHT, LRR and PYD domains-containing protein 3 (Homo sapiens, UniProt Q96P20); assay: Inhibition of NLRP3 inflammasome activation in LPS-activated human PBMC cells assessed as inhibition of ATP/nigericin induced IL-1beta secretion preincubated with LPS for 3 hrs followed by compound addition for 30 mins and further stimulated with ATP for 1 hr by ELISA; assay type: cell-based
# [2] = target: T1, NACHT, LRR and PYD domains-containing protein 3; assay: Inhibition of NLRP3 inflammasome activation in human whole blood assessed as inhibition of LPS/ATP induced IL-1beta secretion preincubated with LPS for 3 hrs followed by compound addition for 30 mins and further stimulated with ATP for 60 mins by ELISA; assay type: tissue-based
# [3] = Permeability of compound at pH 7.4 incubated for 4 hrs by […] based PAMPA assay; assay type: ADME; settings: read-out: permeability
# Cytochrome P450 1A2 = target: T2, Cytochrome P450 1A2 (Homo sapiens, UniProt P05177); assay: Reversible inhibition of CYP1A2 in human liver microsomes in presence of NADPH by LC-MS/MS analysis; assay type: ADME, Microsome
# T2 sequence (P05177 whole entry): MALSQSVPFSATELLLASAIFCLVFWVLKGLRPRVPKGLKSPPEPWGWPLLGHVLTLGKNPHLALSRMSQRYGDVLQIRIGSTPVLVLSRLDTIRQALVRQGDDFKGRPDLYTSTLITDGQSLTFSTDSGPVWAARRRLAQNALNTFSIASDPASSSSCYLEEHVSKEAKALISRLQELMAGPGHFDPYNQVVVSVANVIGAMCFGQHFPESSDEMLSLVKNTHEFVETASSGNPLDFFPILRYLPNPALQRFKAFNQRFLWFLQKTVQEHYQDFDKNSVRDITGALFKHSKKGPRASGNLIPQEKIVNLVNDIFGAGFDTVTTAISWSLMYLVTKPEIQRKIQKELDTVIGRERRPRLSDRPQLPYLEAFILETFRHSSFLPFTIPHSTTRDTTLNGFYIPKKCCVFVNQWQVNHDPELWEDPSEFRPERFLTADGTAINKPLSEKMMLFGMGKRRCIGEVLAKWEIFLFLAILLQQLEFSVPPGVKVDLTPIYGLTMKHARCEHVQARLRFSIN
# [4] = Kinetic solubility of compound in PBS at pH7.4 at 1 to 200 uM incubated for 24 hrs by LC-UV analysis; assay type: physicochemical; settings: pH 7.4, dose 1-200 µM, read-out: Kinetic_solubility
# NLRC4 (Homo sapiens) = assay: Inhibition of NLRC4 inflammasome activation in human PBMC assessed as reduction in IL-1beta secretion at 3 nM preincubated with LPS for 2.5 hrs followed by compound addition for 30 mins by ELISA
# Cytochrome P450 2D6 = Cytochrome P450 2D6 (Homo sapiens, UniProt P10635); assay: Reversible inhibition of CYP2D6 in human liver microsomes in presence of NADPH by LC-MS/MS analysis; assay type: ADME, Microsome
# [5] = Drug concentration in C57BL/6J mouse brain at 3 mg/kg, iv measured after 5 mins by LC-MS/MS analysis; assay type: ADME, organism-based; settings: read-out: Ct
# [6] = Inhibition of LPS-induced IL-6 secretion in human PBMC cells incubated for 4 hrs by ELISA
# Cytochrome P450 2C9 = Cytochrome P450 2C9 (Homo sapiens, UniProt P11712); assay: Reversible inhibition of CYP2C9 in human liver microsomes in presence of NADPH by LC-MS/MS analysis; assay type: ADME, Microsome
# Cytochrome P450 2C19 = Cytochrome P450 2C19 (Homo sapiens, UniProt P33261); assay: Reversible inhibition of CYP2C19 in human liver microsomes using S-mephenytoin as substrate incubated for 20 mins in presence of NADPH by LC-MS/MS analysis; assay type: ADME, Microsome
# [7] = target: Voltage-gated inwardly rectifying potassium channel KCNH2 (Homo sapiens, UniProt Q12809); assay: Inhibition of hERG transfected in CHO cells at -80 mV holding potential by Whole-cell patch clamp assay; assay type: toxicity, cell-based
# Cytochrome P450 3A4 [8] = target: T3, Cytochrome P450 3A4 (Homo sapiens, UniProt P08684); assay: Reversible inhibition of CYP3A4 in human liver microsomes using midazolam as substrate in presence of NADPH by LC-MS/MS analysis; assay type: ADME, Microsome
# [9] = Induction of steatosis in human HepG2 cells assessed as accumulation of triglycerides in cytoplasm by high content screening analysis; assay type: toxicity, cell-based
# HepG2 = assay: Induction of phospholipidosis in human HepG2 cells assessed as increase in phospholipids within lysosome by high content screening analysis; assay type: toxicity, cell-based
# [10] = target: 5-hydroxytryptamine receptor 2B (Homo sapiens) (UniProt P41595); assay: Antagonist activity at 5HT2B (unknown origin) at 10 uM by Eurofins-CEREP panel assay relative to control; assay type: functional; set-up: scale not given: the % may be the effect or the level left; settings: filed as antagonist
# Cytochrome P450 2B6 = target: T4, Cytochrome P450 2B6 (Homo sapiens, UniProt P20813); assay: Reversible inhibition of CYP2B6 in human liver microsomes in presence of NADPH by LC-MS/MS analysis; assay type: ADME, Microsome
# T4 sequence (P20813 whole entry): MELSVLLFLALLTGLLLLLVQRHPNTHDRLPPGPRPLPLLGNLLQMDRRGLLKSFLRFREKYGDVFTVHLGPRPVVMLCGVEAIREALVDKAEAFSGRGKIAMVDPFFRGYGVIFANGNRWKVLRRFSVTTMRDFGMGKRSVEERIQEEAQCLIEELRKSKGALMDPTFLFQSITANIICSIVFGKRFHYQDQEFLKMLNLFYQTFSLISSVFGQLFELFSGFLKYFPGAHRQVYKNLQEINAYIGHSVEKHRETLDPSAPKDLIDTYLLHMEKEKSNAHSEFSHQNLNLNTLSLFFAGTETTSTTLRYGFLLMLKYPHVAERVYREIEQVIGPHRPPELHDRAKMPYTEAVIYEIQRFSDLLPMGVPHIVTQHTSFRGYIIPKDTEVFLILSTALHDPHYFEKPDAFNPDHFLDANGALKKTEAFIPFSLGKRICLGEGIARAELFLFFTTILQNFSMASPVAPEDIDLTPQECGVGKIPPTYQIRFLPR
# [11] = Ratio of drug concentration in C57BL/6J mouse brain to blood at 3 mg/kg, iv measured after 5 mins by LC-MS/MS analysis; assay type: ADME, organism-based; settings: read-out: BBR
# [12] = Mutagenicity in Salmonella typhimurium by Ames test; assay type: toxicity; settings: salmonella enterica subsp. enterica serovar typhimurium
# Cytochrome P450 2C8 = target: T5, Cytochrome P450 2C8 (Homo sapiens, UniProt P10632); assay: Reversible inhibition of CYP2C8 in human liver microsomes in presence of NADPH by LC-MS/MS analysis; assay type: ADME, Microsome
# T5 sequence (P10632 whole entry): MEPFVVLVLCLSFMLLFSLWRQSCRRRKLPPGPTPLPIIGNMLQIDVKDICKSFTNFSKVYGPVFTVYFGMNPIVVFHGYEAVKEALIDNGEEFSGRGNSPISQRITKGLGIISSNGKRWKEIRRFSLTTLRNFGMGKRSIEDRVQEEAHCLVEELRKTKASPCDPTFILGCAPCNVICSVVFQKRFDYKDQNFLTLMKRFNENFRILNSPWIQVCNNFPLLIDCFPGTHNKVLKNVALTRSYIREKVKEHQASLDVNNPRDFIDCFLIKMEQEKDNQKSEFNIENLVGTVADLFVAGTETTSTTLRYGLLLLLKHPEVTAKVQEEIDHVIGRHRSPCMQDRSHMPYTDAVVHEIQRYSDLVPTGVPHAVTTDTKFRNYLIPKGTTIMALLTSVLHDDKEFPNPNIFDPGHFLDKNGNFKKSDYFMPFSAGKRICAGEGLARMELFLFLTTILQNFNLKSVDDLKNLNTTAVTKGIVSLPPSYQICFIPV
# [13] = Drug concentration in C57BL/6J mouse blood at 3 mg/kg, iv measured after 5 mins by LC-MS/MS analysis; assay type: ADME, organism-based; settings: read-out: Ct
# Cytochrome P450 3A4 [14] = target: T3, Cytochrome P450 3A4; assay: Reversible inhibition of CYP3A4 in human liver microsomes using nifedipine as substrate incubated for 5 mins in presence of NADPH by LC-MS/MS analysis; assay type: ADME, Microsome
# [15] = Inhibition of LPS-induced TNFalpha secretion in human PBMC cells incubated for 4 hrs by ELISA
# [16] = Phototoxicity in mouse BALB/3T3 clone A31 cells incubated under dark condition for 1 hr followed by 2.5 J/cm2 UVA light irradiation for 18 mins by neutral red dye based assay; assay type: toxicity, cell-based; settings: balb/3t3 clone a31, 1.3 h, time 78 min
# T1 sequence (Q96P20 whole entry, the tested form may be a part): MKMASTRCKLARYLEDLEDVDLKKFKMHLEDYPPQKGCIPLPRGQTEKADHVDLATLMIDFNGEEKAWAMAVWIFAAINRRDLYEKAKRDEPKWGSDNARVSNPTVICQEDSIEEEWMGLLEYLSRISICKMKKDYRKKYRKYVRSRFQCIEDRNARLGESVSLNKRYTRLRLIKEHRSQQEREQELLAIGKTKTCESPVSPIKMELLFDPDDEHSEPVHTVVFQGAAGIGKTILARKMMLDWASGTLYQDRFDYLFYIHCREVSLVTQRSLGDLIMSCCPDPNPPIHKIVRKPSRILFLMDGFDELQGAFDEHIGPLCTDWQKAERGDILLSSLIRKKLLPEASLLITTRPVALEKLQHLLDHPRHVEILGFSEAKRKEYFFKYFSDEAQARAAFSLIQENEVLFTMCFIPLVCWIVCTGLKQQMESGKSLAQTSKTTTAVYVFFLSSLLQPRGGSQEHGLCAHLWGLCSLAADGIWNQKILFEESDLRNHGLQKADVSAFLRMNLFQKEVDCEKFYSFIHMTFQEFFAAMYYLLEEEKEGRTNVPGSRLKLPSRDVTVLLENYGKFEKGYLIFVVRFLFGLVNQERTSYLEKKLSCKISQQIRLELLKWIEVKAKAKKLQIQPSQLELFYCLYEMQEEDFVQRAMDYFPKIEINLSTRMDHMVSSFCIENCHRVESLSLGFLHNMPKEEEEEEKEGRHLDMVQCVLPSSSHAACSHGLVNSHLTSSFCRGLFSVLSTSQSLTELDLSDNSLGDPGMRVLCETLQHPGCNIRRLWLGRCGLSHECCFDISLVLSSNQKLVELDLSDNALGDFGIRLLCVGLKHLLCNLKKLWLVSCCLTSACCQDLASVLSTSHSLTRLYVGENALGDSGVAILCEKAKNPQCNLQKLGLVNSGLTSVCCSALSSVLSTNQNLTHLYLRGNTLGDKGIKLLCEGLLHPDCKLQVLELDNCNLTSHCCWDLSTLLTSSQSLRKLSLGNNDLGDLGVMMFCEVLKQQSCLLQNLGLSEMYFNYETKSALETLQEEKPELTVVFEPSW
# T3 sequence (P08684 whole entry): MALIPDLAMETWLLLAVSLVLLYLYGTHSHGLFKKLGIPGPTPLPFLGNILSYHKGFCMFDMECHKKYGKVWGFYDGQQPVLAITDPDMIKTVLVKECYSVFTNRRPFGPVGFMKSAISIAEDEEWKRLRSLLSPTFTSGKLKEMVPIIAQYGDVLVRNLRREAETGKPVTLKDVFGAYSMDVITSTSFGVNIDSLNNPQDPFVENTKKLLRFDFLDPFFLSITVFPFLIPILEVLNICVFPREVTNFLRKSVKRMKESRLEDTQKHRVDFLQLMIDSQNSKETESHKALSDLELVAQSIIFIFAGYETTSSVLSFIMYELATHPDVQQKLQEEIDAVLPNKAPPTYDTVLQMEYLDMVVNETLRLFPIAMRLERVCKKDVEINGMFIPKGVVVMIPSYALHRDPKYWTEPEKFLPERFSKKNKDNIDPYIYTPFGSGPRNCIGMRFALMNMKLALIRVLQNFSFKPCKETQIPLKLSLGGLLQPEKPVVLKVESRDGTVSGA
# Chain of Cytochrome P450 2C19 (P33261 whole entry): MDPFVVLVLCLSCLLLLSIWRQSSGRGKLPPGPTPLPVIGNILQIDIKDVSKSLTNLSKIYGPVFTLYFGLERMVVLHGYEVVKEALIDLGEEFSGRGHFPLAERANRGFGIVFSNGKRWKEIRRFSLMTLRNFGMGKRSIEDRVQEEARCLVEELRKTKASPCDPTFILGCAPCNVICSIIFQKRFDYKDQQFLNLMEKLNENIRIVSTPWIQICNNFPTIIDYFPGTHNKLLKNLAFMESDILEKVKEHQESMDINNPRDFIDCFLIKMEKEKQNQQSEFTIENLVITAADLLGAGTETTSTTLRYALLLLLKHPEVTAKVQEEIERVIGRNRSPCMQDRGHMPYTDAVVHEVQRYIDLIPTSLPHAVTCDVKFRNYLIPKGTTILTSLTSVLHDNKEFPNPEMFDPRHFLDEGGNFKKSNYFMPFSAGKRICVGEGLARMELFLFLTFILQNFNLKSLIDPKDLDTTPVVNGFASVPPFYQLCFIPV
# Chain of Cytochrome P450 2C9 (P11712 whole entry): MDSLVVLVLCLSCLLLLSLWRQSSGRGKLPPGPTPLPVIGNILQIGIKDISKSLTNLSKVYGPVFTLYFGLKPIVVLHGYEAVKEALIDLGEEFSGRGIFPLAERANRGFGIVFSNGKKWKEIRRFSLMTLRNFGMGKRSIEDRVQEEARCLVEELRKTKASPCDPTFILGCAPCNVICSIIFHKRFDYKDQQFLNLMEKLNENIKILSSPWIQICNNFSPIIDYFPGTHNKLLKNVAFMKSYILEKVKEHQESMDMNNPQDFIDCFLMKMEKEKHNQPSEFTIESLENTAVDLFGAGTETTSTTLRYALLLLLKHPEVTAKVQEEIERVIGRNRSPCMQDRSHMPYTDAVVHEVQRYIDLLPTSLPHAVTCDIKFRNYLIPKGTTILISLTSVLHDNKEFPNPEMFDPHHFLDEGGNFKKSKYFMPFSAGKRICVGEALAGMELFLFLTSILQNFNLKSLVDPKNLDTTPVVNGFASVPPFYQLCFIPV
# Chain of Cytochrome P450 2D6 (P10635 whole entry): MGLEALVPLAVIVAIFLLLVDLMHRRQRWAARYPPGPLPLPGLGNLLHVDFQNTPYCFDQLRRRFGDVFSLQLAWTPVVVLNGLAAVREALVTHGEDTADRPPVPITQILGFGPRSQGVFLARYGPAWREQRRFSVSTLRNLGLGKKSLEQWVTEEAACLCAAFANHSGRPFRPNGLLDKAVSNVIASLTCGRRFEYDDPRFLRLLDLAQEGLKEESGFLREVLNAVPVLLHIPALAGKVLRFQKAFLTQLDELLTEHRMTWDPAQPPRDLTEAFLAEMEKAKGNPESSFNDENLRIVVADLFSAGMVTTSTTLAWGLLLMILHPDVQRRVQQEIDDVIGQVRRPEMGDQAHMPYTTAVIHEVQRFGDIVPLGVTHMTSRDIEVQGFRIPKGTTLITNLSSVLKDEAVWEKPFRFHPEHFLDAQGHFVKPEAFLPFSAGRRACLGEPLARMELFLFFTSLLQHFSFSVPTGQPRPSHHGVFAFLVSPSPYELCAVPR
# Chain of 5-hydroxytryptamine receptor 2B (Homo sapiens) (P41595 whole entry): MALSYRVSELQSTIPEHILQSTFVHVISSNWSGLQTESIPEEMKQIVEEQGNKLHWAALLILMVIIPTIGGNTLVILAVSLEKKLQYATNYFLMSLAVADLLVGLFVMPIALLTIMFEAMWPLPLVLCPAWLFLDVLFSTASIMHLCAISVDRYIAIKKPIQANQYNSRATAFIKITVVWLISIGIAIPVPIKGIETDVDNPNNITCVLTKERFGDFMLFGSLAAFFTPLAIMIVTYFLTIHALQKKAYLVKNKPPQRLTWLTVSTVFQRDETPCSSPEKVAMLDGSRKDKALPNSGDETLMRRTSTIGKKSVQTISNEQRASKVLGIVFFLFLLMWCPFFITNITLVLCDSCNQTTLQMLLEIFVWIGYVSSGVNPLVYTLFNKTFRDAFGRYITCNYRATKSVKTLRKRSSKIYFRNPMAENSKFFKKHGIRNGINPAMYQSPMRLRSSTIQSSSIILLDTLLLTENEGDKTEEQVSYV
# Chain of Voltage-gated inwardly rectifying potassium channel KCNH2 (Q12809 whole entry): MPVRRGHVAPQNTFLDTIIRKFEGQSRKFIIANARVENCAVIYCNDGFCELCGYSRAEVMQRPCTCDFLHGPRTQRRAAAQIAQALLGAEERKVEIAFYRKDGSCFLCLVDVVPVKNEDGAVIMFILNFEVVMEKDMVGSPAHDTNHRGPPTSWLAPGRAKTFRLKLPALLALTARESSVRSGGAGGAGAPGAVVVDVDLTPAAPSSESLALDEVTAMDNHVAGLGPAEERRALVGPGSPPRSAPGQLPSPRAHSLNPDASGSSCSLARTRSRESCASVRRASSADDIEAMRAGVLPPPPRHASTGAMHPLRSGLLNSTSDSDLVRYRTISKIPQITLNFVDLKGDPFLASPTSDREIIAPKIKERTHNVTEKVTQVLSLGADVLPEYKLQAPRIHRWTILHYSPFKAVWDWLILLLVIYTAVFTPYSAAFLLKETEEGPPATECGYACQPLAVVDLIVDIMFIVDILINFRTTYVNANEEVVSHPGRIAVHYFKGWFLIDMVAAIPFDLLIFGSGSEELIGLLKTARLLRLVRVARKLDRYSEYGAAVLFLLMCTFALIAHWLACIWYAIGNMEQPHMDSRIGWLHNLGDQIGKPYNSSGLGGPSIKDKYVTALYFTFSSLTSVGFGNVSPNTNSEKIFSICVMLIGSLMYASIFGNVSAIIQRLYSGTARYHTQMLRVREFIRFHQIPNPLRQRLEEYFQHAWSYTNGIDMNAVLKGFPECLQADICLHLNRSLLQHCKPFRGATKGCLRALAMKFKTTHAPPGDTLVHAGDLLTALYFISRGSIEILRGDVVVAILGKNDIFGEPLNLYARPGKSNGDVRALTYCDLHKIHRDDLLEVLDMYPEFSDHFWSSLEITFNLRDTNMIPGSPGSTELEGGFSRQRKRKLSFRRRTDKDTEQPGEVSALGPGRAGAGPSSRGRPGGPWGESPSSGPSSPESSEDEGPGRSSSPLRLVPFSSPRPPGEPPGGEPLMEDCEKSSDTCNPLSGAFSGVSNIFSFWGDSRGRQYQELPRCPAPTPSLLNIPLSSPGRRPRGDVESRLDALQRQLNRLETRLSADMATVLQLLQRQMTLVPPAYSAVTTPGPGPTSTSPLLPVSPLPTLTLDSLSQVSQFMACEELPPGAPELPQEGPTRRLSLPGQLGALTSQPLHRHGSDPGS
smiles,measurement,setting,value
CCOC(=O)COC(=O)Nc1ccccc1C(F)(F)F,IC50,[1],> 20 µM
same,IC50,[2],> 20 µM
CCOC(=O)COC(=O)Nc1c(C(C)C)cccc1C(C)C,IC50,[1],10 µM
same,IC50,[2],> 20 µM
CC(C)OC(=O)[C@@H](Cc1cnccn1)OC(=O)Nc1c2c(cc3c1CCC3)CCC2,Papp at 4 h,[3],13.7 ×10⁻⁶ cm/s
same,IC50,Cytochrome P450 1A2,1.1 µM
same,solubility kinetic at 24 h,[4],5.5 µM
CCOC(=O)COC(=O)Nc1c(C)cccc1CC,IC50,[1],1.5 µM
same,IC50,[2],2.4 µM
CCOC(=O)COC(=O)Nc1ccccc1OC(F)(F)F,IC50,[1],> 20 µM
same,IC50,[2],> 20 µM
CCOC(=O)COC(=O)Nc1c(CC)cccc1CC,IC50,[1],0.81 µM
same,IC50,[2],13 µM
CC(C)OC(=O)[C@@H](Cc1ncccn1)OC(=O)Nc1c2c(cc3c1CCC3)CCC2 [NT-0796],inhibition,NLRC4 (Homo sapiens),inactive
same,Papp at 4 h,[3],11.8 ×10⁻⁶ cm/s
same,IC50,Cytochrome P450 1A2,> 30 µM
same,IC50,Cytochrome P450 2D6,> 30 µM
same,concentration at 5 min,[5],479 ng/g
same,IC50,[6],> 2 µM
same,IC50,Cytochrome P450 2C9,> 30 µM
same,solubility kinetic at 24 h,[4],28 µM
same,IC50,Cytochrome P450 2C19,> 30 µM
same,IC50,[7],> 30 µM
same,IC50,Cytochrome P450 3A4 [8],> 30 µM
same,MEC,[9],> 40 µM
same,MEC,HepG2,> 40 µM
same,Activity,[10],90%
same,IC50,Cytochrome P450 2B6,> 30 µM
same,Kp at 5 min,[11],0.79
same,Activity,[12],Non-Toxic
same,IC50,Cytochrome P450 2C8,> 30 µM
same,concentration at 5 min,[13],610 ng/mL
same,IC50,Cytochrome P450 3A4 [14],> 30 µM
same,IC50,[15],> 2 µM
same,Activity,[16],Non-Toxic
O=C(Nc1c2c(cc3c1CCC3)CCC2)O[C@H](Cc1ncccn1)C(=O)OC1CCCC1,Papp at 4 h,[3],3.5 ×10⁻⁶ cm/s
same,solubility kinetic at 24 h,[4],< 1 µM
CC(C)(O)c1coc(S(=O)(=O)NC(=O)Nc2c3c(cc4c2CCC4)CCC3)c1,Papp at 4 h,[3],< 0.0003 ×10⁻⁶ cm/s
same,IC50,[6],> 40 µM
same,IC50,[15],> 40 µM
CCOC(=O)COC(=O)Nc1ccccc1C(C)C,IC50,[1],1.6 µM
same,IC50,[2],5.5 µM
CCOC(=O)[C@@H](Cc1ncccn1)NC(=O)Nc1c2c(cc3c1CCC3)CCC2,Papp at 4 h,[3],8.2 ×10⁻⁶ cm/s
same,IC50,[6],4.3 µM
same,IC50,[15],2.7 µM
CC(C)OC(=O)[C@@H](Cn1cc(C#N)cn1)OC(=O)Nc1c2c(cc3c1CCC3)CCC2,Papp at 4 h,[3],5 ×10⁻⁶ cm/s
same,solubility kinetic at 24 h,[4],< 1 µM
same,IC50,Cytochrome P450 2C19,4.4 µM
CCOC(=O)COC(=O)N(C)c1c2c(cc3c1CCC3)CCC2,IC50,[1],> 40 µM
same,IC50,[2],> 40 µM
CCOC(=O)COC(=O)Nc1ccccc1C#N,IC50,[1],5.5 µM
same,IC50,[2],6.8 µM
CCOC(=O)CNC(=O)Oc1c2c(cc3c1CCC3)CCC2,IC50,[1],> 40 µM
same,IC50,[2],> 40 µM
CCOC(=O)COC(=O)Nc1cc(C)ccc1C,IC50,[1],0.97 µM
same,IC50,[2],2.9 µM
CCOC(=O)COC(=O)Nc1c(C)cccc1C,IC50,[1],0.93 µM
same,IC50,[2],1.1 µM
CC(C)OC(=O)[C@@H](Cn1cncn1)OC(=O)Nc1c2c(cc3c1CCC3)CCC2,Papp at 4 h,[3],13.7 ×10⁻⁶ cm/s
same,IC50,Cytochrome P450 1A2,0.18 µM
same,solubility kinetic at 24 h,[4],37 µM
CCOC(=O)COC(=O)Nc1c(C)cc(C)cc1C,IC50,[1],0.59 µM
same,IC50,[2],3.9 µM
CCOC(=O)COC(=O)Nc1c(F)cccc1F,IC50,[1],1.9 µM
same,IC50,[2],9.4 µM
CCOC(=O)COC(=O)Nc1c(Cl)cccc1Cl,IC50,[1],1 µM
same,IC50,[2],9.2 µM
O=C(Nc1c2c(cc3c1CCC3)CCC2)O[C@H](Cc1ncccn1)C(=O)O,Papp at 4 h,[3],< 0.0002 ×10⁻⁶ cm/s
same,IC50,Cytochrome P450 1A2,> 30 µM
same,IC50,Cytochrome P450 2D6,> 30 µM
same,concentration at 5 min,[5],91.7 ng/g
same,IC50,Cytochrome P450 2C9,> 30 µM
same,solubility kinetic at 24 h,[4],> 200 µM
same,IC50,Cytochrome P450 2C19,> 30 µM
same,IC50,[1],0.066 µM
same,Kp at 5 min,[11],0.07
same,IC50,[2],4.7 µM
same,concentration at 5 min,[13],1160 ng/mL
same,IC50,Cytochrome P450 3A4 [14],> 30 µM
COC(=O)CN(C)C(=O)Nc1c2c(cc3c1CCC3)CCC2,IC50,[1],> 40 µM
same,IC50,[2],> 40 µM
